{"source": "patent US11813306B2", "about": "“Cyclic tetramer compounds as proprotein convertase subtilisin/kexin type 9 (PCSK9) inhibitors for the treatment of metabolic disorders” (NOVARTIS AG, priority 2018, dated 2023)", "target": "human PCSK9 (Homo sapiens, UniProt Q8NBP7)", "sequence (Q8NBP7 153-692)": "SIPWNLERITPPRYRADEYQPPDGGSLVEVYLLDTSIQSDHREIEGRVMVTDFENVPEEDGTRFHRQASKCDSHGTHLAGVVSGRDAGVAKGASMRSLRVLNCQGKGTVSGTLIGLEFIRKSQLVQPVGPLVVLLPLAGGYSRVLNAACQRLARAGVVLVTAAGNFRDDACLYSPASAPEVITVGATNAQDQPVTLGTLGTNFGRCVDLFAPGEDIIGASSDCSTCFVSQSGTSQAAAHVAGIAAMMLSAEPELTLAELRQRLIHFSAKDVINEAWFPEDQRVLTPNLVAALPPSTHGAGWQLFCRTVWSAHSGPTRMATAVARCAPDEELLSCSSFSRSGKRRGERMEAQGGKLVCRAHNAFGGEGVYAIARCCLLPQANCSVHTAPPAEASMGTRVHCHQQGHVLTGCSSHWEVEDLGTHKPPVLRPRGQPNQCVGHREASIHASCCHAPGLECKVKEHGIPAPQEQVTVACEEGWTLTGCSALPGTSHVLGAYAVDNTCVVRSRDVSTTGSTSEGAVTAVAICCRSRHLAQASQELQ", "sequence (Q8NBP7 31-152 partner limits assumed)": "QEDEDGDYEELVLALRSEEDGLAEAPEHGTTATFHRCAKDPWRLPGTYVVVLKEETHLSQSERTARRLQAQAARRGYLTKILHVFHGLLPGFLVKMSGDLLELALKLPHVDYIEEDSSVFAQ", "experiment": "PCSK9 ligand binding assay (TR-FRET): interference with binding of human PCSK9 to human LDLR", "details": "for pIC50: Human PCSK9 Alexa Fluor 647 / Human LDLR extracellular domain-Europium Kryptate; for Max % inhibition: efficacy (Amax), 100% = 1 uM unlabeled human PCSK9, 0% = DMSO", "how_it_was_run": "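Read-out was TR-FRET ratio (665 nm over 615 nm, 330 nm excitation) between Alexa Fluor 647-human PCSK9 (16 nM added) and Europium Kryptate-human LDLR ectodomain (4 nM added). Compound and PCSK9 were mixed 30 min before LDLR, then incubated 2 h. Inhibition was normalised to DMSO and unlabelled-PCSK9 controls, giving IC50 and Amax.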", "note": "pIC50: −log10 of the molar value."}
{"smiles": "COc1cccc2c1OC[C@@H]2[C@@H]1CC(=O)N(Cc2ccc(Cl)cc2Oc2ccc(-c3cnc(CN4CCCC4)n3C)cc2)[C@@H](C)C(=O)N[C@@H](CO)C(=O)N(C)[C@H](Cc2ccc(Cl)cc2)CN(C)C1=O.Cl", "note": "[Compound 103, (2S, 5S, 8R, 12S)-1-(4-chloro-2-(4-(1-methyl-2-(pyrrolidin-1-ylmethyl)-1H-imidazol-5-yl)phenoxy)benzyl)-8-(4-chlorobenzyl)-5-(hydroxymethyl)-12-((R)-7-methoxy-2,3-dihydrobenzofuran-3-yl)-2,7,10-trimethyl-1,4,7,10-tetraazacyclotetradecane-3,6,11,14-tetraone]", "values": [{"measurement": "pIC50", "result": 8.68}, {"measurement": "Max % inhibition", "result": 98.4, "unit": "%"}]}
{"smiles": "CCOCCOCCOCc1ncc(-c2ccc(Oc3cc(Cl)ccc3CN3C(=O)N[C@@H](Cc4ccccc4)C(=O)N4CCC[C@@](Cc5ccc(Cl)cc5)(C4)NC(=O)[C@H](CO)NC(=O)[C@@H]3C)cc2)n1C.Cl", "note": "[Compound 104]", "values": [{"measurement": "pIC50", "result": 8.74}, {"measurement": "Max % inhibition", "result": 69.1, "unit": "%"}]}
{"smiles": "COC[C@@H]1NC(=O)[C@H](CCF)N(Cc2ccc(Cl)cc2Oc2ccc(-c3cnc(CN(C)C)n3C)cc2)C(=O)C[C@@H](Cc2ccccc2)C(=O)N2CCC[C@@](Cc3ccc(Cl)cc3)(C2)NC1=O.Cl", "note": "[Compound 105, (3R,7S,10S,13R)-3-benzyl-6-(4-chloro-2-(4-(2-((dimethylamino)methyl)-1-methyl-1H-imidazol-5-yl)phenoxy)benzyl)-13-(4-chlorobenzyl)-7-(2-fluoroethyl)-10-(methoxymethyl)-1,6,9,12-tetraazabicyclo[11.3.1]heptadecane-2,5,8,11-tetraone hydrochloride]", "values": [{"measurement": "pIC50", "result": 8.21}, {"measurement": "Max % inhibition", "result": 97.0, "unit": "%"}]}
{"smiles": "C[C@H]1C(=O)N[C@@H](CO)C(=O)N(C)[C@H](Cc2ccc(Cl)cc2)CN(C)C(=O)[C@H](Cc2ccccc2)CC(=O)N1Cc1ccc(Cl)cc1Oc1cc(F)c(-c2cnc(CN3CCCC3)n2C)c(F)c1.Cl", "note": "[Compound 106, (2S, 5S, 8R, 12R)-12-benzyl-1-(4-chloro-2-(3,5-difluoro-4-(1-methyl-2-(pyrrolidin-1-ylmethyl)-1H-imidazol-5-yl)phenoxy)benzyl)-8-(4-chlorobenzyl)-5-(hydroxymethyl)-2,7,10-trimethyl-1,4,7,10-tetraazacyclotetradecane-3,6,11,14-tetraone]", "values": [{"measurement": "pIC50", "result": 8.07}, {"measurement": "Max % inhibition", "result": 105.1, "unit": "%"}]}
{"smiles": "C[C@@H](c1ccccc1)[C@@H]1CC(=O)N(Cc2ccc(Cl)cc2Oc2ccc(-c3cnc(CN4CCCC4)n3C)cc2)[C@@H](C)C(=O)N[C@@H](CO)C(=O)N(C)[C@H](Cc2ccc(Cl)cc2)CN(C)C1=O.Cl", "note": "[Compound 107, (2S, 5S, 8R, 12S)-1-(4-chloro-2-(4-(1-methyl-2-(pyrrolidin-1-ylmethyl)-1H-imidazol-5-yl)phenoxy)benzyl)-8-(4-chlorobenzyl)-5-(hydroxymethyl)-2,7,10-trimethyl-12-((R)-1-phenylethyl)-1,4,7,10-tetraazacyclotetradecane-3,6,11,14-tetraone]", "values": [{"measurement": "pIC50", "result": 8.11}, {"measurement": "Max % inhibition", "result": 105.6, "unit": "%"}]}
{"smiles": "C[C@H]1C(=O)N[C@@H](CO)C(=O)N(C)[C@H](Cc2ccc(Cl)cc2)CN(C)C(=O)[C@H](Cc2ccccc2)CC(=O)N1Cc1ccc(Cl)cc1Oc1ccc(-c2cnc(CN3CCCC3)n2C)cc1.Cl", "note": "[Compound 108, (2S, 5S, 8R, 12R)-12-benzyl-1-(4-chloro-2-(4-(1-methyl-2-(pyrrolidin-1-ylmethyl)-1H-imidazol-5-yl)phenoxy)benzyl)-8-(4-chlorobenzyl)-5-(hydroxymethyl)-2,7,10-trimethyl-1,4,7, 10-tetraazacyclotetradecane-3,6,11,14-tetraone]", "values": [{"measurement": "pIC50", "result": 8.03}, {"measurement": "Max % inhibition", "result": 104.6, "unit": "%"}]}
{"smiles": "C[C@H](O)[C@@H]1NC(=O)[C@H](C)N(Cc2ccc(Cl)cc2Oc2ccc(-c3cnc(CN(C)C)n3C)cc2)C(=O)C[C@@H](Cc2ccccc2)C(=O)N2CCC[C@@](Cc3ccc(Cl)cc3)(C2)NC1=O", "note": "[Compound 109, (3R, 7S, 10S, 13R)-3-benzyl-6-(4-chloro-2-(4-(2-((dimethylamino)methyl)-1-methyl-1H-imidazol-5-yl)phenoxy)benzyl)-13-(4-chlorobenzyl)-10-((S)-1-hydroxyethyl)-7-methyl-1,6,9,12-tetraazabicyclo[11.3.1]heptadecane-2,5,8,11-tetraone]", "values": [{"measurement": "pIC50", "result": 7.95}, {"measurement": "Max % inhibition", "result": 82.0, "unit": "%"}]}
{"smiles": "COC[C@@H]1NC(=O)[C@H](C)N(Cc2ccc(Cl)cc2Oc2ccc(-c3cnc(CN4CCCC4)n3C)cc2)C(=O)C[C@@H]([C@H]2COc3c(OC)cccc32)C(=O)N(C)C[C@@H](Cc2ccc(Cl)cc2)N(C)C1=O.Cl", "note": "[Compound 110, (2S, 5S, 8R, 12S)-1-(4-chloro-2-(4-(1-methyl-2-(pyrrolidin-1-ylmethyl)-1H-imidazol-5-yl)phenoxy)benzyl)-8-(4-chlorobenzyl)-12-((R)-7-methoxy-2,3-dihydrobenzofuran-3-yl)-5-(methoxymethyl)-2,7,10-trimethyl-1,4,7,10-tetraazacyclotetradecane-3,6,11,14-tetraone]", "values": [{"measurement": "pIC50", "result": 7.99}, {"measurement": "Max % inhibition", "result": 102.2, "unit": "%"}]}
{"smiles": "COC[C@@H]1NC(=O)[C@H](C)N(Cc2ccc(Cl)cc2Oc2ccc(-c3cnc(CN4CCCC4)n3C)cc2)C(=O)C[C@@H]([C@H]2CC(C)(C)c3ccccc32)C(=O)N(C)C[C@@H](Cc2ccc(Cl)cc2)N(C)C1=O.Cl", "note": "[Compound 111, (2S, 5S, 8R, 12S)-1-(4-chloro-2-(4-(1-methyl-2-(pyrrolidin-1-ylmethyl)-1H-imidazol-5-yl)phenoxy)benzyl)-8-(4-chlorobenzyl)-12-((R)-3,3-dimethyl-2,3-dihydro-1H-inden-1-yl)-5-(methoxymethyl)-2,7,10-trimethyl-1,4,7,10-tetraazacyclotetradecane-3,6,11,14-tetraone]", "values": [{"measurement": "pIC50", "result": 7.94}, {"measurement": "Max % inhibition", "result": 102.4, "unit": "%"}]}
{"smiles": "CC[C@@H]1CC(=O)N(Cc2c(OCC(F)(F)F)cc(Cl)cc2Oc2ccc(-c3cnc(CN4CCCC4)n3C)cc2)[C@@H](C)C(=O)N[C@@H](CO)C(=O)N(C)[C@H](Cc2ccc(Cl)cc2)CNC1=O.Cl", "note": "[Compound 112, (2S, 5S, 8R, 12R)-1-(4-chloro-2-(4-(1-methyl-2-(pyrrolidin-1-ylmethyl)-1H-imidazol-5-yl)phenoxy)-6-(2,2,2-trifluoroethoxy)benzyl)-8-(4-chlorobenzyl)-12-ethyl-5-(hydroxymethyl)-2,7-dimethyl-1,4,7,10-tetraazacyclotetradecane-3,6,11,14-tetraone]", "values": [{"measurement": "pIC50", "result": 7.87}, {"measurement": "Max % inhibition", "result": 98.8, "unit": "%"}]}
{"smiles": "COC[C@@H]1NC(=O)[C@H](C)N(Cc2ccc(Cl)cc2Oc2ccc(-c3cnc(CN4CCCC4)n3C)cc2)C(=O)C[C@@H]([C@H]2CCc3ccccc32)C(=O)N(CCC(F)F)C[C@@H](Cc2ccc(Cl)cc2)N(C)C1=O.Cl", "note": "[Compound 113]", "values": [{"measurement": "pIC50", "result": 7.67}, {"measurement": "Max % inhibition", "result": 102.5, "unit": "%"}]}
{"smiles": "COC[C@@H]1NC(=O)[C@H](C)N(Cc2ccc(Cl)cc2Oc2ccc(-c3cnc(CN4CCCC4)n3C)cc2)C(=O)C[C@@H](Cc2ccccc2)C(=O)N(C)C[C@@H](Cc2ccc(Cl)cc2)N(C)C1=O.Cl", "note": "[Compound 114, (2S, 5S, 8R, 12R)-12-benzyl-1-(4-chloro-2-(4-(1-methyl-2-(pyrrolidin-1-ylmethyl)-1H-imidazol-5-yl)phenoxy)benzyl)-8-(4-chlorobenzyl)-5-(methoxymethyl)-2,7,10-trimethyl-1,4,7,10-tetraazacyclotetradecane-3,6,11,14-tetraone]", "values": [{"measurement": "pIC50", "result": 7.67}, {"measurement": "Max % inhibition", "result": 95.9, "unit": "%"}]}
